Measurements from US20230310428A1, “EGFR INHIBITOR AND PREPARATION METHOD AND USE THEREOF” (HONGYUN BIOTECH CO., LTD., priority 2020, published 2023).

Key:
Test in all cases: Growth inhibitory activity of compounds on BaF3 cell lines stably transfected with kinase (MTS, 48 h)
Type in all cases: cell-based
[1] = target: T1, various mutants of kinase EGFR (BaF3 cell lines stably transfected with kinase) (Homo sapiens, UniProt P00533, L858R); conditions: BaF3 cells stably transfected with EGFR L858R, read-out: IC50, growth inhibition, L858R
T1 construct: expressed in transfected cells; host or cells: BaF3
T1 sequence (P00533 25-1210 L858R): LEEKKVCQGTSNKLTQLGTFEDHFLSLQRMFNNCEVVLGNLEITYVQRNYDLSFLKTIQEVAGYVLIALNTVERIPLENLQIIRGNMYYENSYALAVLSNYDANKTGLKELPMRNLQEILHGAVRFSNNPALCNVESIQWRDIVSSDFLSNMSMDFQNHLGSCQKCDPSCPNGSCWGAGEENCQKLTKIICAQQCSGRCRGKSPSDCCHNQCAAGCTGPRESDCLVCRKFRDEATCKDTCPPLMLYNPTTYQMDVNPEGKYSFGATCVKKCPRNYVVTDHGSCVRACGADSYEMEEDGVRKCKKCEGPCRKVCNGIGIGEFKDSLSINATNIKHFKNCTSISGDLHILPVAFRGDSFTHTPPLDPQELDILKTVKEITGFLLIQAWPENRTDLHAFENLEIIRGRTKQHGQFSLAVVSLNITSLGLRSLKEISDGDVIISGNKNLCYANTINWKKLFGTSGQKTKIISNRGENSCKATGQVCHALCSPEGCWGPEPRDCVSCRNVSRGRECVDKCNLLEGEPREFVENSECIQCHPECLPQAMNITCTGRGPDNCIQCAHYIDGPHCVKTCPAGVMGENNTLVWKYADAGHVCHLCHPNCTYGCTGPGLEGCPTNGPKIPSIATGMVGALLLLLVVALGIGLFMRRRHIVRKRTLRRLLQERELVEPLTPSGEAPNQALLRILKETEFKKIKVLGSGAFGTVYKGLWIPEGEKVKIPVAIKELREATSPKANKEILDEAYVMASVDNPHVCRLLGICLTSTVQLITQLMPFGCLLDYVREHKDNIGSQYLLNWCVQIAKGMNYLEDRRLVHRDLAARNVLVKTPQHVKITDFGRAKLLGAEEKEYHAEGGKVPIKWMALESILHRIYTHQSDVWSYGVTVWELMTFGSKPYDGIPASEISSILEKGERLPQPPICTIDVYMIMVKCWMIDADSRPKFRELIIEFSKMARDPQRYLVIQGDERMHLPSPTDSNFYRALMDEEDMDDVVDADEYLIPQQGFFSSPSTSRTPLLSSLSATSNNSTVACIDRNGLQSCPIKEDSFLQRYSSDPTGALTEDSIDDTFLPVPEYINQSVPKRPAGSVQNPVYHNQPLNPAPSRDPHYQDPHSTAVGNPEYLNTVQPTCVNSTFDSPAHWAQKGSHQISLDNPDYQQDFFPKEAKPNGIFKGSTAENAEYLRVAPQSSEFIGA
Summary of the method: (§1)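 OD at 490 nm after 1-4 h MTS/PES incubation gave growth inhibition relative to 0.1% DMSO negative and cell-free medium blank. Compounds: 8-point 1/3 dilution from 10 µM, 48 h, 37 °C. IC50 from inhibition curves; duplicates.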

[2] = target: T2, various mutants of kinase EGFR (BaF3 cell lines stably transfected with kinase) (Homo sapiens, UniProt P00533, L858R/T790M); conditions: BaF3 cells stably transfected with EGFR L858R/T790M, read-out: IC50, growth inhibition, L858R/T790M
T2 construct: expressed in transfected cells; host or cells: BaF3
Summary of the method: as §1

[3] = target: T3, various mutants of kinase EGFR (BaF3 cell lines stably transfected with kinase) (Homo sapiens, UniProt P00533); conditions: BaF3 cells stably transfected with EGFR Δ19Del, read-out: IC50, growth inhibition, Δ19Del
T3 construct: other: BaF3 cells stably transfected with EGFR Δ19Del; MTS, 48 h; other: BaF3 cell line stably transfected with EGFR Δ19Del
T3 sequence (P00533 with tags, fused parts or gaps DEL746-750): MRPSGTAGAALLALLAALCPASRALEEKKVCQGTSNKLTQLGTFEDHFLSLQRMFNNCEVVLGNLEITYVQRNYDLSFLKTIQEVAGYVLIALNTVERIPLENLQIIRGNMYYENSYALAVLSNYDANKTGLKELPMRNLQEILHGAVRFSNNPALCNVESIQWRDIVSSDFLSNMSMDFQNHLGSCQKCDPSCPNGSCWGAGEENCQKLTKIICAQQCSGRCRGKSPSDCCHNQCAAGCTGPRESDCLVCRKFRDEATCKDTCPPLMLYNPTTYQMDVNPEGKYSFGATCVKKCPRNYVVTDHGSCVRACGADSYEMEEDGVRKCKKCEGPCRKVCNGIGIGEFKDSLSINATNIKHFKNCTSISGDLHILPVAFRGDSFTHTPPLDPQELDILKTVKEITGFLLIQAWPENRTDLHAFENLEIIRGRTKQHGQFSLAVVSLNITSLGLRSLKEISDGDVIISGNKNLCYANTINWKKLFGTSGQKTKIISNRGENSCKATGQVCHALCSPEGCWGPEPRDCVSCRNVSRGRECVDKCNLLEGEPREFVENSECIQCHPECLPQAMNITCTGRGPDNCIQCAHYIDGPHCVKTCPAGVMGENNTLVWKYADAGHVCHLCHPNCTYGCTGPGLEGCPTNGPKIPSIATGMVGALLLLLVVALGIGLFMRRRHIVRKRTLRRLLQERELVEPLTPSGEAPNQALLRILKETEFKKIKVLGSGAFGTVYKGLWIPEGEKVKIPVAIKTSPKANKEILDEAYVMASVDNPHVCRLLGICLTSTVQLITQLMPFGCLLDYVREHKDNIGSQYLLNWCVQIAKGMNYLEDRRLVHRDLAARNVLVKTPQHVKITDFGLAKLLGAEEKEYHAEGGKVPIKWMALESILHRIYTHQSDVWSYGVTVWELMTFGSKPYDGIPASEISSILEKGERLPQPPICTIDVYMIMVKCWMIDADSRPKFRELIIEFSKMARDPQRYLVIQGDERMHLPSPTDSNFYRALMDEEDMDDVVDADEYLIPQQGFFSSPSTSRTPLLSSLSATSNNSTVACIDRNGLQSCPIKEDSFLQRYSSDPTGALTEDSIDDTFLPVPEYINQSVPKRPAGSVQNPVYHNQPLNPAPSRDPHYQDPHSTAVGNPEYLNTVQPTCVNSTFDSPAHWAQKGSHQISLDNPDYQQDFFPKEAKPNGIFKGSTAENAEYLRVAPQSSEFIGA
Summary of the method: as §1

[4] = target: T4, various mutants of kinase EGFR (BaF3 cell lines stably transfected with kinase) (Homo sapiens, UniProt P00533, T790M/C797S, form not given); conditions: BaF3 cells stably transfected with EGFR Δ19Del/T790M/C797S, read-out: IC50, growth inhibition, Δ19Del/T790M/C797S
T4 construct: other: BaF3 cells stably transfected with EGFR Δ19Del/T790M/C797S; MTS, 48; other: BaF3 cell line stably transfected with EGFR Δ19Del/T790M/C7
T4 sequence (P00533 with tags, fused parts or gaps DEL746-750/T790M/C797S, form open): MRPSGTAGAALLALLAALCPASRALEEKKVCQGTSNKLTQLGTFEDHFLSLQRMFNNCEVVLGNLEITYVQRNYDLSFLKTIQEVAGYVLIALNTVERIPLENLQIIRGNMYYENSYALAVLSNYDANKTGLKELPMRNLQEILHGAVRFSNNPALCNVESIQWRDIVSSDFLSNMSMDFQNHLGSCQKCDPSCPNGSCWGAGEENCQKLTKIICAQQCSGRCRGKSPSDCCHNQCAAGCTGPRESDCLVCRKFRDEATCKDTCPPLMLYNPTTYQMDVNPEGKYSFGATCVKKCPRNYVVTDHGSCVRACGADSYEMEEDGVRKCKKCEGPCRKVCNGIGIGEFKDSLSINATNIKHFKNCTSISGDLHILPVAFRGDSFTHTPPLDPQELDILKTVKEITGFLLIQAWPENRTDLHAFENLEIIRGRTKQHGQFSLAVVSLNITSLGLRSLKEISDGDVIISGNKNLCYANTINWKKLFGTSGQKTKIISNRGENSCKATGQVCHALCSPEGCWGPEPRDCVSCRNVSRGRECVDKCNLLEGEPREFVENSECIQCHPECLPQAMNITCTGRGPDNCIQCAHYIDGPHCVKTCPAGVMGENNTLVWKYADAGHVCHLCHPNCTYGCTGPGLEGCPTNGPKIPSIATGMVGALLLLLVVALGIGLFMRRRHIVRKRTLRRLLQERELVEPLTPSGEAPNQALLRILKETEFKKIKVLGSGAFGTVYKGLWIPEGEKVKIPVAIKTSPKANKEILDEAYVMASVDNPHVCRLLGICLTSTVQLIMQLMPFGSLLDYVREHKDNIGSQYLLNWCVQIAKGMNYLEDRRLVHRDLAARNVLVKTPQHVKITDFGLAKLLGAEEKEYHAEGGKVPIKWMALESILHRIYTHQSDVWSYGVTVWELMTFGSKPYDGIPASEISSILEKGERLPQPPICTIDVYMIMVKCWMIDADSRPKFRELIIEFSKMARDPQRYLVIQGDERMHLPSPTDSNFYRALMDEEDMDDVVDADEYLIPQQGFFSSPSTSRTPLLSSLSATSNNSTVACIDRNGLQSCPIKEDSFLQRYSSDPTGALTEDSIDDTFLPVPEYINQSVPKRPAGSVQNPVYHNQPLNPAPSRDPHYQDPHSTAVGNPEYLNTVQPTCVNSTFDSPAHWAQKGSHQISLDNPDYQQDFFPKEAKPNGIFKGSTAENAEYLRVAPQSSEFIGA
Summary of the method: as §1

[5] = target: T5, various mutants of kinase EGFR (BaF3 cell lines stably transfected with kinase) (Homo sapiens, UniProt P00533, C797S/L858R/T790M); conditions: BaF3 cells stably transfected with EGFR L858R/T790M/C797S, read-out: IC50, growth inhibition, L858R/T790M/C797S
T5 construct: expressed in transfected cells; host or cells: BaF3
Summary of the method: as §1

[6] = target: T6, various mutants of kinase EGFR (BaF3 cell lines stably transfected with kinase) (Homo sapiens, UniProt P00533, T790M, form not given); conditions: BaF3 cells stably transfected with EGFR Δ19Del/T790M, read-out: IC50, growth inhibition, Δ19Del/T790M
T6 construct: other: BaF3 cells stably transfected with EGFR Δ19Del/T790M; MTS, 48 h; other: BaF3 cell line stably transfected with EGFR Δ19Del/T790M; MTS, 48
T6 sequence (P00533 with tags, fused parts or gaps DEL746-750/T790M, form open): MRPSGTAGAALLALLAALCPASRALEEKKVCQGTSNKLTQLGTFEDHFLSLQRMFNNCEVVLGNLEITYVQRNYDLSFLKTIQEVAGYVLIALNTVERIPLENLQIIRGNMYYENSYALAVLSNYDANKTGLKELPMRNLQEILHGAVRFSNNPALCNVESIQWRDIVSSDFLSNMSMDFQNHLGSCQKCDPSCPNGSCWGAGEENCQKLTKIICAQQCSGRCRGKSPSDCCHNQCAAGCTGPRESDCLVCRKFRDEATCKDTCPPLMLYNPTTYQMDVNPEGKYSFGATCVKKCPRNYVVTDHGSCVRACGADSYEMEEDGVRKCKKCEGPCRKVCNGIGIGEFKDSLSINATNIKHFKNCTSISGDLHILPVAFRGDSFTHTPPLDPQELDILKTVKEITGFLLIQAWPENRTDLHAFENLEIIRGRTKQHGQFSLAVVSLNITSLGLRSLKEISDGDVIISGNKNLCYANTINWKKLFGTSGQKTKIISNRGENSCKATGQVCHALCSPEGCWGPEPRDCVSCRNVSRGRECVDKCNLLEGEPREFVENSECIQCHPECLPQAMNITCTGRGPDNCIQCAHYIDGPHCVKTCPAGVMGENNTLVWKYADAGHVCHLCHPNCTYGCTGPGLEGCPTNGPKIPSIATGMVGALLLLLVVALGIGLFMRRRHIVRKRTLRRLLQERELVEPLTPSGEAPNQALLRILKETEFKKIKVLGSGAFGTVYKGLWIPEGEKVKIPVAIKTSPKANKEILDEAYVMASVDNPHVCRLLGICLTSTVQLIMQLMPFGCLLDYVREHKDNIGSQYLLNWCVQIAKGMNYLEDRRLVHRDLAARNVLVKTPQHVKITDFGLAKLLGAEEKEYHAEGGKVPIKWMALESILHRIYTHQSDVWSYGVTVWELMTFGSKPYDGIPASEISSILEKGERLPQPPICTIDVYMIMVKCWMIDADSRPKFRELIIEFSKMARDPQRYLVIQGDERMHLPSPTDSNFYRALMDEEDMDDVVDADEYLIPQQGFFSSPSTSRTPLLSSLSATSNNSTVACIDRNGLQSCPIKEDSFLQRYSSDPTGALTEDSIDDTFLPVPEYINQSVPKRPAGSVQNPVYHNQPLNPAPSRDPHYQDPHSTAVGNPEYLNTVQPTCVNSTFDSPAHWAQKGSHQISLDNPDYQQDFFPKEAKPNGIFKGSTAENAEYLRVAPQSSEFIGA
Summary of the method: as §1

SMILES	IC50 [1] [nM]	IC50 [2] [nM]	IC50 [3] [nM]	IC50 [4] [nM]	IC50 [5] [nM]	IC50 [6] [nM]
CCc1cc(Nc2ncc(Cl)c(Nc3ccc4nccnc4c3N(C)S(=O)(=O)C(F)(F)F)n2)c(OC)cc1N1CCN(C)CC1 [Compound I-267]	50 to 500	50 to 500	50 to 500	50 to 500	50 to 500	50 to 500
COc1cc(N2CCC(N(C)C)C2)c(C)cc1Nc1ncc(Cl)c(Nc2ccc3nccnc3c2N(C)S(=O)(=O)C(F)(F)F)n1 (stereo not drawn) [Compound I-268]	500 to 2500	500 to 2500	500 to 2500	50 to 500	50 to 500	500 to 2500
CCc1cc(Nc2ncc(C3CC3)c(Nc3ccc4nccnc4c3N(C)S(C)(=O)=O)n2)c(OC)cc1N1CCC(N2CCN(C)CC2)CC1 [Compound I-269]	≤ 50	≤ 50	≤ 50	≤ 50	≤ 50	≤ 50
CCc1cc(Nc2ncc(C3CC3)c(Nc3ccc4nccnc4c3N(C)S(C)(=O)=O)n2)c(OC)nc1N1CCC(N2CCN(C)CC2)CC1 [Compound I-270]	≤ 50	50 to 500	50 to 500	≤ 50	≤ 50	50 to 500
C=Cc1cc(Nc2ncc(C3CC3)c(Nc3ccc4nccnc4c3N(C)S(C)(=O)=O)n2)c(OC(F)(F)F)cc1N1CCC(N2CCN(C)CC2)CC1 [Compound I-271]	50 to 500	50 to 500	50 to 500	≤ 50	≤ 50	50 to 500
COc1cc(N2CCC(N(C)C)CC2)c(C)cc1Nc1ncc(C2CC2)c(Nc2ccc3nccnc3c2N(C)S(C)(=O)=O)n1 [Compound I-272]	≤ 50	≤ 50	≤ 50	≤ 50	≤ 50	≤ 50
CCc1cc(Nc2ncc(C3CC3)c(Nc3ccc4nccnc4c3N(C)S(C)(=O)=O)n2)c(OC)cc1N1CCC(N(C)C)CC1 [Compound I-273]	≤ 50	≤ 50	≤ 50	≤ 50	≤ 50	≤ 50
COc1cc(N2CCC(N(C)C)C2)c(C)cc1Nc1ncc(C2CC2)c(Nc2ccc3nccnc3c2N(C)S(C)(=O)=O)n1 (stereo not drawn) [Compound I-274]	50 to 500	50 to 500	50 to 500	≤ 50	50 to 500	50 to 500
CCc1cc(Nc2ncc(C3CC3)c(Nc3ccc4nccnc4c3N(C)S(C)(=O)=O)n2)c(OC)cc1N1CCC(N(C)C)C1 (stereo not drawn) [Compound I-275]	≤ 50	50 to 500	≤ 50	≤ 50	≤ 50	≤ 50
COc1cc(N2CCC(N3CCN(C)CC3)CC2)c(C)cc1Nc1ncc(C)c(Nc2ccc3nccnc3c2N(C)S(C)(=O)=O)n1 [Compound I-276]	≤ 50	≤ 50	≤ 50	≤ 50	≤ 50	≤ 50
CCc1cc(Nc2ncc(C)c(Nc3ccc4nccnc4c3N(C)S(C)(=O)=O)n2)c(OC)cc1N1CCC(N2CCN(C)CC2)CC1 [Compound I-277]	≤ 50	≤ 50	≤ 50	≤ 50	≤ 50	≤ 50
CCc1cc(Nc2ncc(C)c(Nc3ccc4nccnc4c3N(C)S(C)(=O)=O)n2)c(OC)nc1N1CCC(N2CCN(C)CC2)CC1 [Compound I-278]	≤ 50	≤ 50	≤ 50	≤ 50	≤ 50	≤ 50
CCc1cc(Nc2ncc(C)c(Nc3ccc4nccnc4c3N(C)S(C)(=O)=O)n2)c(OC)cc1N1CCC(N(C)C)CC1 [Compound I-279]	≤ 50	≤ 50	≤ 50	≤ 50	≤ 50	≤ 50
CCc1cc(Nc2ncc(C)c(Nc3ccc4nccnc4c3N(C)S(C)(=O)=O)n2)c(OC)cc1N1CCC(N(C)C)C1 (stereo not drawn) [Compound I-280]	≤ 50	≤ 50	≤ 50	≤ 50	≤ 50	≤ 50
CCc1cc(Nc2ncc(OC)c(Nc3ccc4nccnc4c3N(C)S(C)(=O)=O)n2)c(OC(F)(F)F)cc1N1CCC(N2CCN(C)CC2)CC1 [Compound I-281]	≤ 50	≤ 50	≤ 50	≤ 50	≤ 50	≤ 50
CCc1cc(Nc2ncc(OC)c(Nc3ccc4nccnc4c3N(C)S(C)(=O)=O)n2)c(OC)cc1N1CCC(N(C)C)CC1 [Compound I-282]	≤ 50	≤ 50	≤ 50	≤ 50	≤ 50	≤ 50
CCc1cc(Nc2ncc(OC)c(Nc3ccc4nccnc4c3N(C)S(C)(=O)=O)n2)c(OC)cc1N1CCN(C)CC1 [Compound I-283]	≤ 50	≤ 50	≤ 50	≤ 50	≤ 50	≤ 50
COc1cc(N2CCC(N3CCN(C)CC3)CC2)c(C(C)C)cc1Nc1ncc(Br)c(Nc2ccc3nccnc3c2N(C)S(C)(=O)=O)n1 [Compound I-284]	500 to 2500	50 to 500	50 to 500	≤ 50	≤ 50	50 to 500
COc1cc(N2CCC(N3CCN(C)CC3)CC2)c(C2CC2)cc1Nc1ncc(Br)c(Nc2ccc3nccnc3c2N(C)S(C)(=O)=O)n1 [Compound I-285]	50 to 500	≤ 50	50 to 500	≤ 50	≤ 50	≤ 50
CCc1cc(Nc2ncc(Br)c(Nc3ccc4nccnc4c3N(C)S(C)(=O)=O)n2)ccc1N1CCC(N2CCN(C)CC2)CC1 [Compound I-286]	≤ 50	≤ 50	≤ 50	≤ 50	≤ 50	≤ 50
COc1cc(N2CCC(N3CCN(C)CC3)CC2)c(C2CC2)cc1Nc1ncc(Cl)c(Nc2ccc3nccnc3c2N(C)S(C)(=O)=O)n1 [Compound I-287]	50 to 500	≤ 50	50 to 500	≤ 50	≤ 50	≤ 50
COc1cc(N2CCC(N3CCN(C)CC3)CC2)c(C(C)C)cc1Nc1ncc(Cl)c(Nc2ccc3nccnc3c2N(C)S(C)(=O)=O)n1 [Compound I-288]	≤ 50	50 to 500	50 to 500	50 to 500	50 to 500	50 to 500
CCc1cc(Nc2ncc(Cl)c(Nc3ccc4nccnc4c3N(C)S(C)(=O)=O)n2)ccc1N1CCC(N2CCN(C)CC2)CC1 [Compound I-289]	≤ 50	≤ 50	≤ 50	≤ 50	≤ 50	≤ 50
C=Cc1cc(Nc2ncc([N+](=O)[O-])c(Nc3ccc4nccnc4c3N(C)S(C)(=O)=O)n2)c(OC(F)(F)F)cc1N1CCC(N2CCN(C)CC2)CC1 [Compound I-290]	500 to 2500	50 to 500	500 to 2500	50 to 500	50 to 500	50 to 500
COc1cc(N2CCC(N3CCN(C)CC3)CC2)c(C(C)C)cc1Nc1ncc(C2CC2)c(Nc2ccc3nccnc3c2N(C)S(C)(=O)=O)n1 [Compound I-291]	50 to 500	50 to 500	50 to 500	50 to 500	500 to 2500	50 to 500
COc1cc(N2CCC(N3CCN(C)CC3)CC2)c(C2CC2)cc1Nc1ncc(C2CC2)c(Nc2ccc3nccnc3c2N(C)S(C)(=O)=O)n1 [Compound I-292]	50 to 500	≤ 50	50 to 500	50 to 500	50 to 500	≤ 50
CCc1cc(Nc2ncc(C3CC3)c(Nc3ccc4nccnc4c3N(C)S(C)(=O)=O)n2)ccc1N1CCC(N2CCN(C)CC2)CC1 [Compound I-293]	50 to 500	≤ 50	50 to 500	50 to 500	50 to 500	≤ 50
CCS(=O)(=O)N(C)c1c(Nc2nc(Nc3ccc(N4CCC(N5CCN(C)CC5)CC4)cc3OC)ncc2Cl)ccc2nccnc12 [Compound I-294]	50 to 500	50 to 500	50 to 500	≤ 50	50 to 500	50 to 500
